One may read the Km as the substrate concentration at which the rate is half of its maximum.

One compound from article PMC2764847, “Dual Localized AtHscB Involved in Iron Sulfur Protein Biogenesis in Arabidopsis” (PLoS ONE, 2009) can be followed below.

This experiment addresses T1, AtHscA1 (Arabidopsis thaliana, UniProt Q8GUM2).
T1 construct: gene HSP70-9
T1 sequence (Q8GUM2 47-682): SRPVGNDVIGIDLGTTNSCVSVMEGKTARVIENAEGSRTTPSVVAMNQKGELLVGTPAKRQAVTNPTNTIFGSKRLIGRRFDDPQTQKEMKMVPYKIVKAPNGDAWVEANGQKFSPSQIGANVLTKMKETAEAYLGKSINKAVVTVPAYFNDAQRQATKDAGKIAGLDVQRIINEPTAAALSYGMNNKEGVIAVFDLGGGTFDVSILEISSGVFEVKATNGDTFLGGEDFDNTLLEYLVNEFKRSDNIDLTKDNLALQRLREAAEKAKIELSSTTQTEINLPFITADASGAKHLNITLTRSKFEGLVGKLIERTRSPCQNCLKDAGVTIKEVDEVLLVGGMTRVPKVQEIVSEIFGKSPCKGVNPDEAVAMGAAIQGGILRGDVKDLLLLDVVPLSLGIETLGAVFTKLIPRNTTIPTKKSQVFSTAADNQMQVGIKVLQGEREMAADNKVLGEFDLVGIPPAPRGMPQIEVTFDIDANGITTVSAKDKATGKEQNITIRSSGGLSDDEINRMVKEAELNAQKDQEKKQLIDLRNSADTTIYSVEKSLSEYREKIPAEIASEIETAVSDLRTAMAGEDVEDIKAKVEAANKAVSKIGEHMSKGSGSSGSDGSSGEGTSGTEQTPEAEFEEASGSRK
As to the kind of experiment: ATPase assay, [gamma-32P]ATP hydrolysis, TLC and phosphorimager. The class given is biochemical. As to conditions: 50 mM Tris-HCl pH 7.4, 50 mM NaCl, 10 mM KCl, 0.1 mM EDTA, 1.5 mM DTT; 2 µM protein; no co-chaperone; labelled compound.

`Nc1ncnc2c1ncn2[C@@H]1O[C@H](COP(=O)(O)OP(=O)(O)OP(=O)(O)O)[C@@H](O)[C@H]1O` [ATP]: the Km worked out at 49.5 µM.
